The values that follow come from ChEMBL document CHEMBL5291721, “A preclinical secondary pharmacology resource illuminates target-adverse drug reaction associations of marketed drugs” (Nat Commun, 2023).

Experiment [1] deals with T1, Alpha-2B adrenergic receptor (Homo sapiens, UniProt P18089).
T1 sequence (P18089 whole entry): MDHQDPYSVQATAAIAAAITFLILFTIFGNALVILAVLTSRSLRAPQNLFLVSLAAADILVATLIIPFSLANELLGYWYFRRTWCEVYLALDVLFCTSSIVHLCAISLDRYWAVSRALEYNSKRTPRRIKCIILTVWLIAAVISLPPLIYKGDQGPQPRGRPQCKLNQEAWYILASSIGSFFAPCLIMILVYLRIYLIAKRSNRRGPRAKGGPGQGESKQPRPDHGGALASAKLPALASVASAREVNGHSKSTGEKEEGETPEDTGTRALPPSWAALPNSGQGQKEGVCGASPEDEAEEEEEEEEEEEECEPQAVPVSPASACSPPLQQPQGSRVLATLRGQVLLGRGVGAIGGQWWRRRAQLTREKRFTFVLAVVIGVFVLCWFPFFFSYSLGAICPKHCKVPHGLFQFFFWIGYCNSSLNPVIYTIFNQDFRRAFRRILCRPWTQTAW

The target in experiment [2] is Gamma-aminobutyric acid receptor subunit alpha-1 (Rattus norvegicus, UniProt P62813). The class given is functional.
Experiment [3] deals with Glutamate receptor ionotropic, NMDA 1 (Rattus norvegicus, UniProt P35439).
In experiment [4] the target is Histamine H1 receptor (Homo sapiens, UniProt P35367).
Experiment [5] concerns the target T2, 5-hydroxytryptamine receptor 1A (Homo sapiens, UniProt P08908).
T2 sequence (P08908 whole entry): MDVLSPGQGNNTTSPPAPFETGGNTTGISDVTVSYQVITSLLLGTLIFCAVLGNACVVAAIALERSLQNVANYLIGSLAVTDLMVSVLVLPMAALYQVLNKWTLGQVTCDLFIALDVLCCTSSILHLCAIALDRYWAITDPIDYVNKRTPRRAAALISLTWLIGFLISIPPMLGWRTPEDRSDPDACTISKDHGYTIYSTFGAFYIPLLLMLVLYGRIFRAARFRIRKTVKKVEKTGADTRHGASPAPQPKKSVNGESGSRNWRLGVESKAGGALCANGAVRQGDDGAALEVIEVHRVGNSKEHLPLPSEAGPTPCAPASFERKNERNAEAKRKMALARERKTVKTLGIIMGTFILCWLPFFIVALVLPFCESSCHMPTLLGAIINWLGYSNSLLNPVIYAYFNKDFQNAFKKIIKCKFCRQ
The class given is functional, cell-based.

The target of experiment [6] is T3, 5-hydroxytryptamine receptor 2C (Homo sapiens, UniProt P28335).
T3 sequence (P28335 whole entry): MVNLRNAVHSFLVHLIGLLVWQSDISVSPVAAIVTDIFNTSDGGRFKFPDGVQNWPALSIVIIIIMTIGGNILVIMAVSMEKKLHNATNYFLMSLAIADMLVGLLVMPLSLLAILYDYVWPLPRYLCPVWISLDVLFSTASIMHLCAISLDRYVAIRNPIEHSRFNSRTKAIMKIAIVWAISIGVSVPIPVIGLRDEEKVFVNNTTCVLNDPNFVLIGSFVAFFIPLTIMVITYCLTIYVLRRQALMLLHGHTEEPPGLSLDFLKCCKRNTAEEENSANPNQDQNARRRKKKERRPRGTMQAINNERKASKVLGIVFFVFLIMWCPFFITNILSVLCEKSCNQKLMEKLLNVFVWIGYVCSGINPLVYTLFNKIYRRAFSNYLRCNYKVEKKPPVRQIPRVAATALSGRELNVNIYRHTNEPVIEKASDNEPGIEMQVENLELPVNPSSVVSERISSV

Experiment [7] has as its target Melanocortin receptor 3 (Homo sapiens, UniProt P41968).
The target in experiment [8] is Motilin receptor (Homo sapiens, UniProt O43193).
In experiment [9] the target is Kappa-type opioid receptor (Homo sapiens, UniProt P41145).
Experiment [10] has as its target T4, Equilibrative nucleoside transporter 1 (Homo sapiens, UniProt Q99808).
T4 sequence (Q99808 whole entry): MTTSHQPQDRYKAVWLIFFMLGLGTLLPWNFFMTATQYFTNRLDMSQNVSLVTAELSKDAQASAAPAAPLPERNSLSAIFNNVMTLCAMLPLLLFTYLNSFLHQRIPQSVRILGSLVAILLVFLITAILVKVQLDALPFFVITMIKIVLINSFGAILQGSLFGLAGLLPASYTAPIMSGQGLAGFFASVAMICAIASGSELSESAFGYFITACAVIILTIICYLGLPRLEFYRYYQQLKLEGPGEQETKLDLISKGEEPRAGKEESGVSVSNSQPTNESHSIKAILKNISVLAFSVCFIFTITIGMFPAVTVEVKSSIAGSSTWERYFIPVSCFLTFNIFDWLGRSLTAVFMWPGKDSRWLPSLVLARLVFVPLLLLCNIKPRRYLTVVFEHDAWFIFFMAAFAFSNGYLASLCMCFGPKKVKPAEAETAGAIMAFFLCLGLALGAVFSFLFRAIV

Experiment [11] concerns the target Sodium-dependent serotonin transporter (Homo sapiens, UniProt P31645).
The target of experiment [12] is cGMP-inhibited 3',5'-cyclic phosphodiesterase 3A (Homo sapiens, UniProt Q14432). The class given is functional.
The target in experiment [13] is T5, Alpha-1A adrenergic receptor (Homo sapiens, UniProt P35348).
T5 sequence (P35348 whole entry): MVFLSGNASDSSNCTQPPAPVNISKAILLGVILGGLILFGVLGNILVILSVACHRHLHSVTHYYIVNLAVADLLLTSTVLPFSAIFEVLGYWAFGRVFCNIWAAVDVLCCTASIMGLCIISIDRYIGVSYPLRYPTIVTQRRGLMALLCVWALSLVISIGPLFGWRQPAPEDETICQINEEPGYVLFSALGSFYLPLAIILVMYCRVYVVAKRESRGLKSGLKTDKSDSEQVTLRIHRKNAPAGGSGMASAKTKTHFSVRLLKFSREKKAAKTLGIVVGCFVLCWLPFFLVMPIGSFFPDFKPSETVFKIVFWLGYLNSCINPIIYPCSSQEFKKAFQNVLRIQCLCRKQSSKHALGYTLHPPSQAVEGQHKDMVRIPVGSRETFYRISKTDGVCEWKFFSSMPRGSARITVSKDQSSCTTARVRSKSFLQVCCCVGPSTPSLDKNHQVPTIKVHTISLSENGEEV
The class given is functional, cell-based.

As a reminder, the AC50 is the concentration giving half of the maximal activity seen. The low end stands for activity at low concentration, the high end for activity only at high concentration.
Also: assay procedure not described here.

Chain of cGMP-inhibited 3',5'-cyclic phosphodiesterase 3A (Q14432 whole entry): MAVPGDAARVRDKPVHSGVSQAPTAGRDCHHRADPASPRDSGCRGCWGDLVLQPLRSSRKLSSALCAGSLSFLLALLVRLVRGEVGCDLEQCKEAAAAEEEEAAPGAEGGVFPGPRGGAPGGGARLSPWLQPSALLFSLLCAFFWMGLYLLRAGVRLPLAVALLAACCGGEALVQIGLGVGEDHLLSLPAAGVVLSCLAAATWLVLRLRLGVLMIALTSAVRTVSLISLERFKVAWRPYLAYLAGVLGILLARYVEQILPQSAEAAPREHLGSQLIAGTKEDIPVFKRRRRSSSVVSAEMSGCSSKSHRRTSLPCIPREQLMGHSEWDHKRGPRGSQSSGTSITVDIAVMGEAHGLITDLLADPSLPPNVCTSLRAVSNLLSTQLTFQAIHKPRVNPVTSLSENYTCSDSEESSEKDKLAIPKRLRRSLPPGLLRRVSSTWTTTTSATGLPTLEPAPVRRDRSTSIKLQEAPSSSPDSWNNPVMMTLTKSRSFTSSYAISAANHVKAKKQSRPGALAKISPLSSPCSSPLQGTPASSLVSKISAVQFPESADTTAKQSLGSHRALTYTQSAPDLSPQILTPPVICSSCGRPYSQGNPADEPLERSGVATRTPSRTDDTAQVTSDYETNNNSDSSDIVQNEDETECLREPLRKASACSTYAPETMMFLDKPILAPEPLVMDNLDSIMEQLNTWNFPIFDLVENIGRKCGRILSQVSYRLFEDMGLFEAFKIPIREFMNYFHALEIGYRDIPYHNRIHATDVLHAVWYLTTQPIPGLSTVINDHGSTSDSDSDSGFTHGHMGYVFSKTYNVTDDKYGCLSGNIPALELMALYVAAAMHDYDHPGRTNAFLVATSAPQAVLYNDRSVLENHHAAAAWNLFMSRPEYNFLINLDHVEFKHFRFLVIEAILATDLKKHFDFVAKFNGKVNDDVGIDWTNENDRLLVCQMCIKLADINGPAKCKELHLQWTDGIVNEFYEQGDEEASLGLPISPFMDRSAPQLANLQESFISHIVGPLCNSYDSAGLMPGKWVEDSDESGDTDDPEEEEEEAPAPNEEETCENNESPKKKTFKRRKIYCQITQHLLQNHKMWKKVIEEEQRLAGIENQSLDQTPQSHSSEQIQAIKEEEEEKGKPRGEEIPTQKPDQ
Chain of Sodium-dependent serotonin transporter (P31645 whole entry): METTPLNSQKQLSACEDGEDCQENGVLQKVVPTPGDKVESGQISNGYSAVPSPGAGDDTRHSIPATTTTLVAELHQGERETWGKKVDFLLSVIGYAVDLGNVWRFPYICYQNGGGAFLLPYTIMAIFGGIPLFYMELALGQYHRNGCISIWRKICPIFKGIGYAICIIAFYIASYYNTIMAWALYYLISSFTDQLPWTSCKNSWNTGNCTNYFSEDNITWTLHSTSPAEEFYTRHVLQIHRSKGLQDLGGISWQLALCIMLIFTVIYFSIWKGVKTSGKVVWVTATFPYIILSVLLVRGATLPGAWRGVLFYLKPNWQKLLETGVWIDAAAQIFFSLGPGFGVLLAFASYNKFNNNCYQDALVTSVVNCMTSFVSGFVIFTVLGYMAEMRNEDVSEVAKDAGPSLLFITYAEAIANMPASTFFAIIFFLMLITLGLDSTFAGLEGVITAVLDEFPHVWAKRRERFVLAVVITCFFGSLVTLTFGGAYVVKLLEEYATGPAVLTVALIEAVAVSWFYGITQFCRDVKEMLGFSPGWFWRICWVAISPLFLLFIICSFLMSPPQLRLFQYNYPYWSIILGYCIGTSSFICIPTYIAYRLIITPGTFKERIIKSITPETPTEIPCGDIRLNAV
Chain of Gamma-aminobutyric acid receptor subunit alpha-1 (P62813 whole entry): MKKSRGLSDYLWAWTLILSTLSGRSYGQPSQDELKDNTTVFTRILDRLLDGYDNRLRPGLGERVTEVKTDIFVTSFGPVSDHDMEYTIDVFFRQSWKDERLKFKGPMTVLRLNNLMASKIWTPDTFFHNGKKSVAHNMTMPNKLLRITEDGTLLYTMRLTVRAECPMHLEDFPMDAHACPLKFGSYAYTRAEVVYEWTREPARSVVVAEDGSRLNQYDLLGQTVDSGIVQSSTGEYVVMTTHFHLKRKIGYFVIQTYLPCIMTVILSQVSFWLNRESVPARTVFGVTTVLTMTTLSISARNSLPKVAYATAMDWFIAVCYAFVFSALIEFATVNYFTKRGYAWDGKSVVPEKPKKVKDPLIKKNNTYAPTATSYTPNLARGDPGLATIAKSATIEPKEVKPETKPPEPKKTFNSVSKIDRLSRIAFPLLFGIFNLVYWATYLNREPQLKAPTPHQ
Chain of Motilin receptor (O43193 whole entry): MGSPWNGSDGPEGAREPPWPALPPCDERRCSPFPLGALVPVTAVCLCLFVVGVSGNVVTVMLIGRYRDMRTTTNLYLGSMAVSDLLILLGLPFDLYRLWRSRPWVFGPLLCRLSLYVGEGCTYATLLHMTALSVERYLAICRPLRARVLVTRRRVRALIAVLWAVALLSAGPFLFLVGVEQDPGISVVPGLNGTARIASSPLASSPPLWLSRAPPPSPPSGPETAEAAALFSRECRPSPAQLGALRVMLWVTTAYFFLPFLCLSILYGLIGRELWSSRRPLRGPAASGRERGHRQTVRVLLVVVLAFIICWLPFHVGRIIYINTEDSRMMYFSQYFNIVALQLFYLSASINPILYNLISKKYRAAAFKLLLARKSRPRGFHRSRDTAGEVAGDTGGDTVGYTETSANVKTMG
Chain of Melanocortin receptor 3 (P41968 whole entry): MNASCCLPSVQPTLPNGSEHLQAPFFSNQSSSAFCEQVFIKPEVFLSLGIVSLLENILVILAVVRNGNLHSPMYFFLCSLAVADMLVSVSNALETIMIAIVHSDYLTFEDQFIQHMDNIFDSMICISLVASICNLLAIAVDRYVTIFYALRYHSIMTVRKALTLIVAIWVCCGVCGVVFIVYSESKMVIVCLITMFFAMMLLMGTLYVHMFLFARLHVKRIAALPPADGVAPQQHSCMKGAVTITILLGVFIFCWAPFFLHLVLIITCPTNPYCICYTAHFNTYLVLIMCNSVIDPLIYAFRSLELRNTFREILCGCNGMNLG
Chain of Histamine H1 receptor (P35367 whole entry): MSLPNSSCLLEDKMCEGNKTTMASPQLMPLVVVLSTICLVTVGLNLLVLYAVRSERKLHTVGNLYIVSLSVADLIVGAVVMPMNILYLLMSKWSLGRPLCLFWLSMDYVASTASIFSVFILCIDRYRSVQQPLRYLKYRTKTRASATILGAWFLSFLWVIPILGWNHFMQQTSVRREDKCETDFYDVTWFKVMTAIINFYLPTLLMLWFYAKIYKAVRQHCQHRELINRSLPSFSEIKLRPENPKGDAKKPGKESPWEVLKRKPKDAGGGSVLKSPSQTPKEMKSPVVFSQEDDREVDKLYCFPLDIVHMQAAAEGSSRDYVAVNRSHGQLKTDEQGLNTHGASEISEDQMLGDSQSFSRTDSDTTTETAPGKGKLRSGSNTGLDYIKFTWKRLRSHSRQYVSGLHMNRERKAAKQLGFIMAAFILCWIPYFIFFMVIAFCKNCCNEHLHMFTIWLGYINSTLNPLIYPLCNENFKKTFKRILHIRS
Chain of Kappa-type opioid receptor (P41145 whole entry): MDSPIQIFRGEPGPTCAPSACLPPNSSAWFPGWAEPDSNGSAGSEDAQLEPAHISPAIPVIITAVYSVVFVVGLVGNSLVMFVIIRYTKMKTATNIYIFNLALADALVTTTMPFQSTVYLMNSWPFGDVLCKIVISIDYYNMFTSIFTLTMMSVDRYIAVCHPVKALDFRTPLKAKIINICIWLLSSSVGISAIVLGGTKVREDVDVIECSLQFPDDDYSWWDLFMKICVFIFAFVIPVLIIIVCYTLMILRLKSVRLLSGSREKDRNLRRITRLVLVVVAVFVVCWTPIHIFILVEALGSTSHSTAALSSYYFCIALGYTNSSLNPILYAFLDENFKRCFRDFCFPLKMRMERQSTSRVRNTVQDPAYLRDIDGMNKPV

Regarding `CCCC(=O)O[C@]1(C(=O)CO)CC[C@H]2[C@@H]3CCC4=CC(=O)CC[C@]4(C)[C@H]3[C@@H](O)C[C@@]21C` [HYDROCORTISONE BUTYRATE], the AC50 in experiment [1] was more than 10 µM; in experiment [2] it was more than 10 µM; in experiment [3], more than 10 µM; in experiment [4] it was more than 10 µM; in experiment [5], more than 10 µM; in experiment [6], more than 30 µM. Besides, the AC50 was more than 10 µM in experiment [7]; more than 10 µM in experiment [8]; more than 10 µM in experiment [9]; more than 10 µM in experiment [10]; more than 10 µM in [11]; more than 30 µM in [12].
As for `COC(=O)C1=C(C)NC(C)=C(C(=O)OC(C)(C)CN(C)CCC(c2ccccc2)c2ccccc2)C1c1cccc([N+](=O)[O-])c1` (centres undefined) [LERCANIDIPINE], the AC50 is more than 30 µM in experiment [1]; more than 30 µM in experiment [2]; more than 30 µM in experiment [3]; 6.4 µM in experiment [4]; more than 30 µM in [5]; more than 30 µM in experiment [6]. Also, the AC50 in experiment [7] was more than 30 µM; in experiment [8], 12.6 µM; in [9] it was 3.8 µM; in [10], more than 30 µM; in [11], more than 30 µM; in experiment [12] it was 25 µM.
As for `COc1ccc2c3c1O[C@H]1[C@@H](O)C=C[C@H]4[C@@H](C2)N(C)CC[C@@]341` [CODEINE], the AC50 in [13] was more than 30 µM; in [1] it was more than 10 µM; in experiment [2], more than 10 µM; in [3], more than 10 µM; in experiment [4], more than 10 µM; in experiment [5], more than 10 µM. For the same compound, the AC50 in [6] is more than 30 µM; in [7], more than 30 µM; in experiment [8] it was more than 10 µM; in experiment [10], more than 30 µM; in experiment [11], more than 30 µM; in [12], 3 µM.
Take `O=C(O)CCCCCCCC(=O)O` [AZELAIC ACID]: the AC50 in experiment [1] is more than 10 µM; in experiment [2], more than 10 µM; in experiment [3], more than 10 µM; in [4], more than 10 µM; in [5], more than 10 µM; in [6], more than 30 µM. The AC50 in experiment [7] was more than 10 µM; in experiment [8] it was more than 10 µM; in [9] it was more than 10 µM; in experiment [10], more than 10 µM; in experiment [11], more than 10 µM; in [12] it was more than 30 µM.
For the compound `O=C(O)[C@H](CC(=O)N1C[C@H]2CCCC[C@H]2C1)Cc1ccccc1` [MITIGLINIDE], the AC50 in experiment [1] is more than 10 µM; in [2], more than 10 µM; in experiment [3], more than 10 µM; in [4], more than 10 µM; in experiment [5], more than 10 µM; in experiment [6], more than 30 µM. For the same compound, the concentration at half-maximal activity (AC50) in experiment [7] was more than 10 µM; in experiment [8], more than 10 µM; in experiment [9], more than 10 µM; in [10] it was more than 10 µM; in experiment [11], more than 10 µM; in [12], more than 30 µM.
Consider `CCOC(=O)[C@H](CCc1ccccc1)N[C@@H](C)C(=O)N1C(=O)N(C)C[C@H]1C(=O)O`, for which the AC50 in experiment [13], in experiment [1], in [2], in [3], in [4] and in experiment [5] was more than 30 µM throughout. The AC50 in experiment [6], in experiment [7], in [8], in experiment [10], in experiment [11] and in experiment [12] was more than 30 µM throughout.
As for `C[C@H](N)[C@H](O)c1cccc(O)c1` [METARAMINOL], the AC50 in experiment [1] was more than 10 µM; in experiment [2], more than 10 µM; in experiment [3] it was more than 10 µM; in [4], more than 10 µM; in experiment [5], more than 10 µM; in experiment [6] it was more than 30 µM. The AC50 in experiment [7] is more than 10 µM; in experiment [8] it was more than 10 µM; in experiment [9], more than 10 µM; in experiment [10], more than 10 µM; in experiment [11], more than 10 µM; in experiment [12], more than 30 µM.
For the compound `C#C[C@]1(O)CC[C@H]2[C@@H]3CCc4cc(OC5CCCC5)ccc4[C@H]3CC[C@@]21C` [QUINESTROL], the AC50 is more than 10 µM in [1]; more than 10 µM in [2]; more than 10 µM in [3]; more than 10 µM in [4]; more than 10 µM in [5]; more than 30 µM in experiment [6]. For the same compound, the AC50 is more than 10 µM in [7]; more than 10 µM in experiment [8]; more than 10 µM in [9]; more than 10 µM in experiment [10]; more than 10 µM in experiment [11]; more than 30 µM in experiment [12].
For the compound `COC(=O)[C@H]1[C@H]2C[C@@H]3c4[nH]c5cc(OC)ccc5c4CCN3C[C@H]2C[C@@H](OC(=O)/C=C/c2cc(OC)c(OC)c(OC)c2)[C@@H]1OC` [RESCINNAMINE], the AC50 in experiment [1] is more than 10 µM; in experiment [2], more than 10 µM; in experiment [3], more than 10 µM; in experiment [4], more than 10 µM; in experiment [5] it was more than 10 µM; in experiment [6], more than 30 µM. Further, the AC50 in [7] is more than 10 µM; in experiment [8], more than 10 µM; in experiment [9] it was more than 30 µM; in experiment [10] it was more than 30 µM; in [11] it was more than 30 µM; in experiment [12], more than 30 µM.
Consider `C/C(O)=C(\C#N)C(=O)Nc1ccc(C(F)(F)F)cc1` [TERIFLUNOMIDE], for which the AC50 in experiment [13], in experiment [1], in [2], in [4], in experiment [5] and in experiment [6] was more than 30 µM each time. The AC50 in experiment [7], in [8], in [10], in experiment [11] and in experiment [12] was more than 30 µM throughout.
